Experimental data reported in ChEMBL document CHEMBL3046603, “Synthesis and antibacterial, antifungal activities of some 2r,4c-diaryl-3-azabicyclo[3.3.1]nonan-9-one-4-aminobenzoyl hydrazones” (2012).
Converted amounts (≈) assume the structure as drawn. The source made the active and inactive calls. The rule behind the calls is not given here.

Columns and labels:
Staphylococcus aureus = assay: Antibacterial activity against Staphylococcus aureus MTCC 96 after 24 hr two-fold serial dilution method; format: functional; details: MTCC 96, 24 h
Aspergillus flavus = assay: Antifungal activity against Aspergillus flavus after 72 to 96 hr by two-fold serial dilution method; format: functional
Bacillus subtilis = assay: Antibacterial activity against Bacillus subtilis MTCC 121 after 24 hr two-fold serial dilution method; format: functional; details: MTCC 121, 24 h
Salmonella typhi = assay: Antibacterial activity against Salmonella enterica subsp. enterica serovar Typhi MTCC 531 after 24 hr two-fold serial dilution method; format: functional; details: MTCC 531, 24 h
Fusarium oxysporum = assay: Antifungal activity against Fusarium oxysporum after 72 to 96 hr by two-fold serial dilution method; format: functional
Vibrio cholerae = assay: Antibacterial activity against Vibrio cholerae after 24 hr two-fold serial dilution method; format: functional
Escherichia coli = assay: Antibacterial activity against Escherichia coli MTCC 443 after 24 hr two-fold serial dilution method; format: functional; details: MTCC 443, 24 h
Cryptococcus neoformans [1] = assay: Antifungal activity against Cryptococcus neoformans at 200 ug/ml after 72 to 96 hr by two-fold serial dilution method; format: functional, organism-based
Pseudomonas aeruginosa = assay: Antibacterial activity against Pseudomonas aeruginosa MTCC 741 after 24 hr two-fold serial dilution method; format: functional; details: MTCC 741, 24 h
Klebsiella pneumoniae = assay: Antibacterial activity against Klebsiella pneumoniae MTCC 2272 after 24 hr two-fold serial dilution method; format: functional; details: MTCC 2272, 24 h
Salmonella typhimurium = assay: Antibacterial activity against Salmonella enterica subsp. enterica serovar Typhimurium MTCC 98 after 24 hr two-fold serial dilution method; format: functional; details: MTCC 98, 24 h
Cryptococcus neoformans [2] = assay: Antifungal activity against Cryptococcus neoformans after 72 to 96 hr by two-fold serial dilution method; format: functional
Aspergillus niger = assay: Antifungal activity against Aspergillus niger after 72 to 96 hr by two-fold serial dilution method; format: functional
Candida albicans = assay: Antifungal activity against Candida albicans two-fold serial dilution method; format: functional

SMILES | MIC (Staphylococcus aureus) [µg/mL] | MIC (Aspergillus flavus) [µg/mL] | MIC (Bacillus subtilis) [µg/mL] | MIC (Salmonella typhi) [µg/mL] | MIC (Fusarium oxysporum) [µg/mL] | MIC (Vibrio cholerae) [µg/mL] | MIC (Escherichia coli) [µg/mL] | Activity (Cryptococcus neoformans [1]) | MIC (Pseudomonas aeruginosa) [µg/mL] | MIC (Klebsiella pneumoniae) [µg/mL] | MIC (Salmonella typhimurium) [µg/mL] | MIC (Cryptococcus neoformans [2]) [µg/mL] | MIC (Aspergillus niger) [µg/mL] | MIC (Candida albicans) [µg/mL]
Nc1ccc(C(=O)NN=C2C3CCCC2C(c2ccccc2)NC3c2ccccc2)cc1 (configuration not stated) | 200 (≈ 471 µM) | 200 (≈ 471 µM) | 100 (≈ 236 µM) | 200 (≈ 471 µM) | 200 (≈ 471 µM) | 100 (≈ 236 µM) | 200 (≈ 471 µM) | inactive | 200 (≈ 471 µM) | 50 (≈ 118 µM) | 200 (≈ 471 µM) | – | – | –
Nc1ccc(C(=O)NN=C2C3CCCC2C(c2ccccc2Cl)NC3c2ccccc2Cl)cc1 (configuration not stated) | 200 (≈ 405 µM) | 200 (≈ 405 µM) | 200 (≈ 405 µM) | 100 (≈ 203 µM) | 100 (≈ 203 µM) | 50 (≈ 101 µM) | 100 (≈ 203 µM) | – | 100 (≈ 203 µM) | 50 (≈ 101 µM) | 50 (≈ 101 µM) | 100 (≈ 203 µM) | 100 (≈ 203 µM) | 200 (≈ 405 µM)
C[C@@H]1[C@H](O)[C@@H](C)/C=C/C=C/C=C/C=C/C=C/C=C/C=C/[C@H](O[C@@H]2O[C@H](C)[C@@H](O)[C@H](N)[C@@H]2O)C[C@@H]2O[C@](O)(C[C@@H](O)C[C@@H](O)[C@H](O)CC[C@@H](O)C[C@@H](O)CC(=O)O[C@H]1C)C[C@H](O)[C@H]2C(=O)O [AMPHOTERICIN B] | – | 50 (≈ 54.1 µM) | – | – | 25 (≈ 27.1 µM) | – | – | – | – | – | – | 25 (≈ 27.1 µM) | 50 (≈ 54.1 µM) | 25 (≈ 27.1 µM)
Nc1ccc(C(=O)NN=C2C3CCCC2C(c2ccc(F)cc2)NC3c2ccc(F)cc2)cc1 (configuration not stated) | 50 (≈ 109 µM) | 200 (≈ 434 µM) | 25 (≈ 54.3 µM) | 100 (≈ 217 µM) | 50 (≈ 109 µM) | 50 (≈ 109 µM) | 100 (≈ 217 µM) | – | 200 (≈ 434 µM) | 50 (≈ 109 µM) | 100 (≈ 217 µM) | 200 (≈ 434 µM) | 100 (≈ 217 µM) | 100 (≈ 217 µM)
Cc1ccc(C2NC(c3ccc(C)cc3)C3CCCC2C3=NNC(=O)c2ccc(N)cc2)cc1 (configuration not stated) | 200 (≈ 442 µM) | 200 (≈ 442 µM) | 100 (≈ 221 µM) | 100 (≈ 221 µM) | 100 (≈ 221 µM) | 200 (≈ 442 µM) | 100 (≈ 221 µM) | – | 200 (≈ 442 µM) | 200 (≈ 442 µM) | 200 (≈ 442 µM) | 100 (≈ 221 µM) | 100 (≈ 221 µM) | 200 (≈ 442 µM)
COc1ccc(C2NC(c3ccc(OC)cc3)C3CCCC2C3=NNC(=O)c2ccc(N)cc2)cc1 (configuration not stated) | 100 (≈ 206 µM) | 50 (≈ 103 µM) | 100 (≈ 206 µM) | 100 (≈ 206 µM) | 100 (≈ 206 µM) | 50 (≈ 103 µM) | 100 (≈ 206 µM) | – | 200 (≈ 413 µM) | 200 (≈ 413 µM) | 200 (≈ 413 µM) | 200 (≈ 413 µM) | 100 (≈ 206 µM) | 200 (≈ 413 µM)
Nc1ccc(C(=O)NN=C2C3CCCC2C(c2ccc(Cl)cc2)NC3c2ccc(Cl)cc2)cc1 (configuration not stated) | 50 (≈ 101 µM) | 100 (≈ 203 µM) | 50 (≈ 101 µM) | 200 (≈ 405 µM) | 200 (≈ 405 µM) | 100 (≈ 203 µM) | 50 (≈ 101 µM) | – | 100 (≈ 203 µM) | 200 (≈ 405 µM) | 200 (≈ 405 µM) | 200 (≈ 405 µM) | 50 (≈ 101 µM) | 100 (≈ 203 µM)
Nc1ccc(C(=O)NN=C2C3CCCC2C(c2ccc(Br)cc2)NC3c2ccc(Br)cc2)cc1 (configuration not stated) | 50 (≈ 85.9 µM) | 100 (≈ 172 µM) | 200 (≈ 343 µM) | 50 (≈ 85.9 µM) | 100 (≈ 172 µM) | 200 (≈ 343 µM) | 100 (≈ 172 µM) | – | 50 (≈ 85.9 µM) | 200 (≈ 343 µM) | 200 (≈ 343 µM) | 100 (≈ 172 µM) | 50 (≈ 85.9 µM) | 200 (≈ 343 µM)
CN[C@@H]1[C@H](O[C@H]2[C@H](O[C@H]3[C@H](O)[C@@H](O)[C@H](N=C(N)N)[C@@H](O)[C@@H]3N=C(N)N)O[C@@H](C)[C@]2(O)C=O)O[C@@H](CO)[C@H](O)[C@H]1O [STREPTOMYCIN] | 25 (≈ 43 µM) | – | 12.5 (≈ 21.5 µM) | 25 (≈ 43 µM) | – | 50 (≈ 86 µM) | 50 (≈ 86 µM) | – | 50 (≈ 86 µM) | 20 (≈ 34.4 µM) | 25 (≈ 43 µM) | – | – | –
